This note sets out measurements from ChEMBL document CHEMBL3507680, “University of Dundee, Gates Library screen for HepG2 cell viability”.

The data set can be described thus: Human HepG2 cell viability assay in 384 well format. Details: dose 125 nL, time 70.5 hour; concentration not given beside the values. The note with it: HepG2 cells, read-out: Inhibition. Format: toxicity, cell-based.
As for `Cc1nc(CN2CCN(S(=O)(=O)N3CCOCC3)CC2)oc1C`, the cytotoxicity at 70.5 h was -3.19%. The same measure for `COc1ccccc1C(=O)N1CC(=O)N(Cc2ccco2)CC(O)C1` (stereo not drawn): -12.4%. To `O=C(NCc1ccccc1F)C1=NOC2(CCNC2)C1` (stereo not drawn) belongs -10.8%. To `Cc1ncsc1C(=O)OCCN1CCCCCC1=O` belongs -8.25%.

For `O=C1C(NS(=O)(=O)c2cc(F)cc(F)c2)CCN1Cc1ccccc1` (stereo not drawn), the cytotoxicity at 70.5 h stood at 23.4%. With `c1csc(-c2noc(COCC3CCCO3)n2)c1` (stereo not drawn), the cytotoxicity at 70.5 h was found to be 1.87%. The same measure for `O=C1NCCO[C@H]2CN(C(=O)CCc3ccccc3Cl)CC[C@@H]12`: 22.6%. Take `Cc1nc(N(C)C)nc(C)c1NC(=O)c1ccco1`: the cytotoxicity at 70.5 h is -3.93%.

For the molecule `CCOCCn1nnc(C2(NC(=O)c3ccccc3)CCCC2)n1`, the cytotoxicity at 70.5 h was 3.3%. The same measure for `CN1C(=O)C2(CCN(S(C)(=O)=O)CC2)c2cc(F)ccc21`: -3.04%; for `O=C(N[C@@H]1CN(Cc2ccc3c(c2)OCO3)[C@@H]2CCCO[C@@H]21)C1CC1`: 8.84%. To `Cc1nc(C)c(CNC(=O)N2CCN(c3ccc(Cl)cn3)CC2)s1` belongs -3.03%; to `CCN(CC)S(=O)(=O)NC(C)C(=O)N(C)C` (stereo not drawn), 0.169%; to `Cc1ccc(C(=O)N2CC[C@@H](N(C)C)[C@@H]2Cc2cnn(C)c2)cn1`, -10.1%. To `COCCC(=O)N1CCCC1c1nc(O)cc(C(C)C)n1` (stereo not drawn) belongs -0.774%; to `COCCN1CCO[C@@H]2CN(C(=O)NCc3cccnc3)CC[C@@H]2C1`, 0.801%. In the case of `CCN(Cc1noc(CC(C)C)n1)Cc1ncccc1C(=O)O`, the cytotoxicity at 70.5 h is -3.41%. The same measure for `CNc1nc(CNC(=O)Nc2ccc([S+](C)[O-])c(F)c2)cs1` (stereo not drawn): -2.75%. To `O=C(c1cnccn1)N1CCc2ncnc(C3CCOC3)c2CC1` (stereo not drawn) belongs -9.35%; to `COc1cc(C(=O)NCCc2ccccc2OC)on1`, -1.09%. Consider `CC(C)C(=O)N1CCN(C(=O)N(C)C)CC2(CC(=O)N(C)C2)C1` (stereo not drawn), for which the cytotoxicity at 70.5 h was 37.2%.

On to `CC(C)(C)c1nc(CN2CCCC2Cn2cncn2)no1` (stereo not drawn), for which the cytotoxicity at 70.5 h is -5.99%.

On to `CCn1c(C2CCCN(Cc3cc(OC)cc(OC)c3)C2)nn(C)c1=O` (stereo not drawn), for which the cytotoxicity at 70.5 h is -4.68%. With `CC(C)C[C@H](N)COc1cccc(F)c1Oc1ccccc1`, the cytotoxicity at 70.5 h was 19.1%. The same measure for `CC(C)CN1CCC2(CCCNC2)C1=O` (stereo not drawn): -10.9%. The same measure for `Cc1nc(CCNc2nc(N(C)C)nc3c2CCCC3)cc(=O)[nH]1`: -10.9%; for `Cc1ncoc1C(=O)N1CCCC(C(=O)c2cccc(OC(C)C)c2)C1` (stereo not drawn): -8.43%. To `CC(NCc1ccc(Cl)o1)c1nnc2n1CCCC2` (stereo not drawn) belongs 9.09%; to `Cc1nc(C)c(C(=O)NCCNc2ncccn2)s1`, -5.75%. `O=C(c1cn(-c2cccc(Cl)c2F)nn1)N1CCCSCC1`: the cytotoxicity at 70.5 h is -13.2%. In the case of `CCOC(C)c1nc(COc2nc(C)no2)cs1` (stereo not drawn), the cytotoxicity at 70.5 h was -3.02%.

Consider `Cc1nn(C)c(C)c1CCC(=O)N1CC(c2cccnc2)C1`, for which the cytotoxicity at 70.5 h was 0.0861%. The same measure for `N#Cc1ccc(OCCNc2cccc(C(=O)N3CCOCC3)c2)cc1`: -13.9%; for `CN(Cc1ccccc1NCc1cccnc1)C(=O)c1cccs1`: -2.02%; for `CC(C)N(Cc1ccccc1)C(=O)c1cc(C2CCCN2C)ccn1` (stereo not drawn): -6.6%.

For `COCCCN(Cc1cc(O)nc2ccccc12)C(=O)NC(C)C`, the cytotoxicity at 70.5 h was -13.5%. The same measure for `N#Cc1cccc(S(=O)(=O)Nc2c(F)cccc2N2CCCC2)c1`: -5.48%; for `Cc1nc(C2CCCN(C(=O)c3cnn(C(C)(C)C)c3)C2)no1` (stereo not drawn): 23.3%; for `OC1CCN(Cc2ccc(CNc3ncc(Cl)cc3F)cc2)CC1`: 14.7%. To `COCC(=O)N1CCCN(C(=O)C2Cc3ccccc3CN2C)CC1` (stereo not drawn) belongs 11.5%; to `CSCc1ccc(N2CCC(C(O)Cc3ccccc3)CC2)nc1` (stereo not drawn), 26.6%. To `CC(C)Oc1ccccc1NC(=O)N1CCC(n2cncn2)CC1` belongs -3.08%.

As for `CO[C@@H]1CCN(C2CCOCC2)C[C@@H]1Cc1ccccc1`, the cytotoxicity at 70.5 h was -11.8%.

For the molecule `Cc1cnn(CCC(=O)NS(=O)(=O)N2CCCc3ccccc32)c1`, the cytotoxicity at 70.5 h was -5.92%. As for `Cc1nc2ccccc2n1CCNCc1cccc(O)c1`, the cytotoxicity at 70.5 h was -4.75%. To `CCC(=O)N1CCC(c2nc(C)ncc2-c2ccncc2)CC1` belongs -7.07%; to `CC(Cn1cccn1)NC(=O)c1cc(C2CC2)nc2c1cnn2C` (stereo not drawn), -9.86%; to `Cc1ccccc1CCC(=O)N1CCc2ncnc(NCCO)c2CC1`, -0.133%. The same measure for `Cc1nn(Cc2ccc(C(=O)NC3CCS(=O)(=O)C3)cc2)c(C)c1Br` (stereo not drawn): 3.3%. To `COCC(=O)N1CCCCC1c1nc(C)c2c(n1)N(CC1CC1)C(=O)C2` (stereo not drawn) belongs -2.8%; to `CC(C)c1nnc(CN(C)C(c2ccccc2)c2ccc(F)cc2)o1` (stereo not drawn), -2.6%. For the molecule `O=C(Nc1ccc2c(c1)C(=O)NC2=O)c1cccs1`, the cytotoxicity at 70.5 h was -4.03%. The same measure for `Cc1ccc2c(c1)c(CNC(=O)C1CCN(C(=O)C3CC3)CC1)nn2C`: -3.75%; for `CNC(=O)N1CCC2(CC1)C(=O)N(C)c1c(F)cccc12`: 4.07%. To `c1cnnc(N2CCCC2CNc2ncnc3ccsc23)c1` (stereo not drawn) belongs -1.29%; to `COc1ccc(CN2CC(O)CN(C(=O)OCC(C)C)CC2=O)cc1` (stereo not drawn), 14.8%. The same measure for `O=C(CCc1nc2cc(Br)cnc2[nH]1)NCCCn1ccnc1`: -17.5%; for `CCN1CC[C@@]2(C(=O)N(C)C)CCN(C(=O)Cc3ccccc3)CC[C@@H]12`: -8.1%. In the case of `Cc1cc(NC(=O)CN2CCOC(Cn3nc(C)cc3C)C2)n(C)n1` (stereo not drawn), the cytotoxicity at 70.5 h is -8.28%. To `CNC(=O)C(NC(=O)c1ccn(C)c(=O)c1)c1ccccc1` (stereo not drawn) belongs 33.4%; to `CCn1nc(CC(C)C)cc1C(=O)N1CC(c2ccncc2)C1`, -4.86%; to `CCNc1nc2c(s1)C(=O)CN(C(=O)NCCc1ccccc1)C2`, -17.7%. Take `O=C1COC2(CCN(Cc3ccccn3)CC2)CN1CC1CC1`: the cytotoxicity at 70.5 h is -0.792%. The same measure for `COC(=O)c1cc(OCC2CCC2)cc(C(=O)N[C@H](C)C(N)=O)c1`: -10.2%; for `CN(Cc1ccco1)C1CCC12CCN(C(=O)C1CCOCC1)CC2` (stereo not drawn): -3.65%; for `Cc1ccc(C)c(OCCC(=O)N2CCCN(CC(N)=O)CC2)c1`: -7.33%. Consider `C=C(C)CN1CCC(c2n[nH]c(C3CC3)n2)CC1`, for which the cytotoxicity at 70.5 h came out at 23.2%. To `COc1cc(C)nc(N2CCN(C(C)c3nc(C4CC4)no3)CC2)n1` (stereo not drawn) belongs -10.4%; to `O=C(c1ccccc1-c1nnn[nH]1)N1CCOC(C(F)(F)F)C1` (stereo not drawn), -9.42%. Turning to `CS(=O)(=O)N1CCOCC2(CN(Cc3ccsc3)CCO2)C1` (stereo not drawn), the cytotoxicity at 70.5 h is 0.00349%. The same measure for `Cc1cnn(C2CCCN(C(=O)CCCc3ccccn3)C2)c1` (stereo not drawn): -1.28%.

In the case of `O=C(c1ccc(=O)[nH]c1)N1CCc2c(nc(-c3cccnc3)[nH]c2=O)C1`, the cytotoxicity at 70.5 h was -3.02%. The same measure for `CC1CCN(C(=O)[C@@H]2CC[C@@H]3[C@@H](CCN3c3ncc(F)cn3)O2)CC1`: -2.26%. Take `CCCNC(=O)c1cc(C(C)C)nc(N2CCCCC2)n1`: the cytotoxicity at 70.5 h amounted to 3.03%. To `CO[C@H]1CN(S(=O)(=O)c2cn(C)cn2)[C@@H]2CCCO[C@H]12` belongs 24.5%. With `Cc1cccc(-n2ncc3c(=O)n(CCN4CCCCC4)cnc32)c1C`, the cytotoxicity at 70.5 h amounted to 28%. The same measure for `CCN(Cc1cc(Cl)ccc1OC)Cc1cc(C)nn1C`: 2.1%; for `CC(=O)c1cccc(NC(=O)N(CCO)C2CCc3ccccc32)c1` (stereo not drawn): 26.8%.

With `CN(C)CC(C)(C)Cn1cnc(-c2ccccc2)c1-c1ccncc1`, the cytotoxicity at 70.5 h is -9.09%. The same measure for `Cc1cnn(CC2CCCN2CC(=O)Nc2nc(C)cs2)c1` (stereo not drawn): 1.41%; for `COCc1nnc(C(=O)N2CC(N3CCCCC3)C2)o1`: -9.01%; for `CC(C)C(=O)N1CCN(CC(O)c2cc(Cl)ccc2Cl)CC1` (stereo not drawn): -7.34%. The same measure for `CCNC(=O)NC[C@H]1COCc2nc3cc(C)ccc3n21`: -3.17%; for `CN(C)C(=O)c1noc2c1CN(C(=O)CCC1CCCCN1C)CC2` (stereo not drawn): -4.32%. On to `CCN1C(=O)COC[C@@H]1[C@H](O)c1ccc(NC(=O)COC)cc1`, for which the cytotoxicity at 70.5 h is 11%.

Take `O=C(CCc1cscn1)N1CCC(C(=O)O)(c2ccccc2)CC1`: the cytotoxicity at 70.5 h stood at 4.76%.

For `Cc1ccccc1CC(=O)N(C)C1CCCC1`, the cytotoxicity at 70.5 h is -4.43%. The same measure for `CN1CC(=O)N(c2cnn(C)c2)CC12CCN(Cc1cccnc1)C2` (stereo not drawn): 0.303%; for `Cc1noc(C)c1-c1cccc(C2CCCNC2)n1` (stereo not drawn): 2.18%. To `CCOc1ccccc1C(CC(=O)N(C)C)NC(C)=O` (stereo not drawn) belongs -0.953%; to `COc1ccc2c(c1)CC(NCc1cccc(NC(C)=O)c1)CC2` (stereo not drawn), -5.85%.

For the molecule `CN(C)C(=O)N1CC[C@H]2[C@H]1CCN2c1nncs1`, the cytotoxicity at 70.5 h is -6.13%. To `Cc1cc(NC(=O)CN2CCCC2c2noc(C)n2)n(C)n1` (stereo not drawn) belongs -5.38%; to `CC(C)n1nc(Cn2cccc2)c2c1CN(Cc1ccoc1)C2`, -4.83%. On to `Cn1cc(NC(=O)Nc2ccc3c(c2)OCO3)cn1`, for which the cytotoxicity at 70.5 h is -8.14%. As for `O=C(NC[C@H]1OC[C@@H](NCc2ccc(F)cc2)[C@@H]1O)N1CCOCC1`, the cytotoxicity at 70.5 h is -8.58%. The same measure for `Cc1ccc(CN2C[C@H](N(C)Cc3cncnc3)[C@H]3OCCC[C@H]32)o1`: -10.1%; for `Cc1cnc(N(C)Cc2cnc3ccccc3n2)nc1N(C)C`: -14.7%.
